From patent publication US8044057B2, “Methods for suppressing an immune response or treating a proliferative disorder” (The United States of America as represented by the …, priority 2003, dated 2011)
pIC50: −log10 of the molar value.

How the values were obtained:
P70 S6 kinase [1] = experiment: Western blot of phospho-p70 S6 kinase T389 in A549 cells; assay type: cell-based, human
Procedure: A549 cells were treated without or with 100 mcM LY303511, 200 ng/ml rapamycin, or 50 nM wortmannin in serum free media for 1 hour before addition of E. coli lipopolysaccharide (LPS), […] and interferon (IFN)-γ, 100 U/ml (LPS/IFN-γ or “L/I”). Cells were homogenized and the indicated proteins (see Table 1) were detected by Western blot. Western blots are from the same experiment, and representative of three experiments.
In another experiment, A549 cells were grown to sub-confluence in serum-containing media, and incubated with a vehicle, 100 mcM LY303511, or rapamycin, 200 ng/ml for 0, 12, or 24 hours. Cells were lysed, and proteins separated by SDS-PAGE before transfer to nitrocellulose membranes. Membranes were incubated with antibodies against p27Kip1, p21 Cip1 orphospho-P70 S6 kinase T389.
Measurement of protein phosphorylation: A549 cells were incubated in serum-free medium without or with inhibitors for 1 hour, as indicated, before incubation for 30 minutes with a mixture of LPS, 100 μg/ml (Sigma; St. Louis, Mo.) and IFN-γ, 100 U/ml (Roche; Nutley, N.J.). PASM cells were incubated in serum-free medium without or with inhibitors for 24 h as indicated, before incubation for 30 min with 10% FBS. A549 or PASM cells were washed once with cold PBS and incubated for 15 minutes on ice ih lysis buffer (20 mM Tris pH 8.0, 1% Nonidet P-40, 1 mM EDTA, 5 mM benzamidine, aprotinin, 10 μg/ml, leupeptin, 10 μg/ml, trypsin soybean inhibitor, 1 mM PMSF, 50 mM sodium fluoride, 100 μM sodium orthovanadate, and 1: 100 Sigma phosphatase inhibitor set I containing cantharidin, microcystin LR and bromotetramizole). After freezing and thawing, lysates were centrifuged for 30 min at 16,000×g before protein measurement and storage at −80° C. Equal amounts of total protein were separated by SDS-PAGE, and transferred to a nitrocellulose membrane, before immunoblotting with primary antibodies as indicated. Membranes were treated with anti-rabbit IgG or anti-mouse IgG antibodies (Promega; Madison, Wis.) linked to horseradish peroxidase, developed using an enhanced chemiluminescence detection kit (SuperSignal West Pico, Pierce; Rockford, Ill.), and exposed to X-ray film, which was scanned using an Epson Expression 636 scanner. Integrated band densities were quantified using Scion Image beta 3b software.

P70 S6 kinase [2] = experiment: Western blot of phospho-p70 S6 kinase T389 in PASM cells; assay type: cell-based, human
Procedure: FIGS. 4A-4D are bar graphs and digital images showing that LY303511 inhibits serum-stimulated phosphorylation of S6K and Akt (FIGS. 4A and 4B), as well as proliferation in PASM cells (FIGS. 4C and 4D). After incubation in serum-free medium for 24 hours, PASM cells were incubated without or with 100 μM LY303511, rapamycin, 200 ng/ml, or 200 nM wortmannin (FIG. 4A), or 0-100 μM LY303511 (FIG. 4B), for 1 hour before the addition of 10% FBS for 30 min and preparation of cell lysates. Equal amounts of protein (20 μg/gel) were separated by SDS-PAGE and transferred to nitrocellulose membranes before immunodetection of phospho-p70 S6 kinase T389 (pS6K) orphospho-Akt S473 (pAkt) by Western blot. Data are from one experiment representative of five.
HPASM cells were purchased from Clonetics and passaged according to the manufacturer's instructions. Cells were plated in 100 mm dishes, and allowed to grow to near confluence before serum starvation for 24 hours. […] Cells were homogenized and the indicated proteins were detected by Western blot.
Measurement of protein phosphorylation: A549 cells were incubated in serum-free medium without or with inhibitors for 1 hour, as indicated, before incubation for 30 minutes with a mixture of LPS, 100 μg/ml (Sigma; St. Louis, Mo.) and IFN-γ, 100 U/ml (Roche; Nutley, N.J.). […] Integrated band densities were quantified using Scion Image beta 3b software.

Structure (SMILES): O=c1cc(N2CCNCC2)oc2c(-c3ccccc3)cccc12 [LY303511, 2-(4-piperazinyl)-8-phenyl-4H-1-benzopyran-4-one]
- phosphorylation of P70 S6 kinase at T389 (P70 S6 kinase [1]; A549 cells in serum-containing media, 100 mcM LY303511 or rapamycin 200 ng/ml, 12 and 24 hours): blocked phosphorylation of P70 S6 kinase at T389
- lowest concentration inhibiting LPS/IFNγ-stimulated mTOR activity and mTOR-dependent phosphorylation of S6K (P70 S6 kinase [1]; A549 cells, LPS/IFNγ-stimulated): 1 µM
- phosphorylation of P70 S6 kinase (pS6K T389) (P70 S6 kinase [1]; A549 cells, 100 mcM LY303511, rapamycin 200 ng/ml or wortmannin for 1 hour before LPS/IFN-γ, Western blot): blocks phosphorylation of P70 S6 kinase
- pIC50 (P70 S6 kinase [1]; Homo sapiens, A549 cells, stimulated, densitometric analysis of pS6K phosphoblots, read-out: IC50 for inhibition of S6K phosphorylation): ~5.00
- pIC50 (P70 S6 kinase [2]; Homo sapiens, pulmonary artery smooth muscle cells, densitometry, read-out: IC50 for inhibition of S6K phosphorylation): ~6.00
- basal and serum-stimulated phosphorylation of P70 S6 kinase (P70 S6 kinase [2]; PASM cells, 10% FBS for 30 minutes): inhibited basal and serum-stimulate phosphorylation of P70 S6 kinase
